Source: patent US8586620B2, “Substituted indole compounds having NOS inhibitory activity” (NeurAxon, Inc., priority 2005, dated 2013)
Like-named read-outs stand apart in the source and are kept apart here.

What was measured:
[1] = biological target: human endothelial constitutive NOS (eNOS) (Homo sapiens (Human), UniProt P29474); test: Human eNOS enzyme assay, radiometric; conditions: read-out: eNOSh; Table I; human NOS; dihydrochloride or monohydrochloride salts;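 also: recombinant human eNOS expressed in baculovirus-infected Sf9 cells, activity read as [3H]L-arginine turned into [3H]L-citrulline, the product isolated on ion-exchange resin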
Protocol: (§1) In a radiometric method, NO synthase activity was determined by measuring the conversion of [^3H]L-arginine to [^3H]L-citrulline.
(§2) The total volume of the reaction mixture was 150 μL in every well. […] The reaction was stopped by adding 20 μL of ice-cold buffer containing 100 mM HEPES, 3 mM EGTA, 3 mM EDTA, pH=5.5. [^3H]L-citrulline was separated by DOWEX (ion-exchange resin DOWEX 50 W X 8-400, SIGMA) and the DOWEX was removed by spinning at 12,000 g for 10 min in the centrifuge. […] All assays were performed at least in duplicate. Standard deviations were 10% or less.

[2] = biological target: human neuronal constitutive NOS (nNOS) (Homo sapiens (Human), UniProt P29475); test: Human nNOS enzyme assay, radiometric [3H]L-arginine to [3H]L-citrulline; conditions: for IC50: read-out: nNOSh;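 as to all read-outs here: recombinant human nNOS expressed in baculovirus-infected Sf9 cells, enzyme activity measured radiometrically as turnover of [3H]L-arginine into [3H]L-citrulline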
Protocol: as §1, §2

[3] = Table I, human NOS, dihydrochloride or monohydrochloride salts

Compound | IC50 [1] [µM] | e/n [2] | IC50 [2] [µM] | e/n ([2]; Table I, ratio eNOSh/nNOSh) | IC50 [2, 3] [µM]
CN(C)CCc1c[nH]c2ccc(CNC(=N)c3cccs3)cc12 [Compound 59, N-((3-(2-(dimethylamino)ethyl)-1H-indol-5-yl)methyl)thiophene-2-carboximidamide] | 86.2 | 7 | 12.8 | – | –
CCN1CCC(c2c[nH]c3ccc(NC(=N)c4cccs4)cc23)CC1 [Compound 62, N-(3-(1-ethylpiperidin-4-yl)-1H-indol-5-yl)thiophene-2-carboximidamide] | 57.3 | – | – | 24 | 2.43
CN1CC=C(c2c[nH]c3ccc(NC(=S)NC(=O)c4ccccc4)cc23)CC1 [Compound 64, N-(3-(1-methyl-1,2,3,6-tetrahydropyridin-4-yl)-1H-indol-5-ylcarbamothioyl)benzamide] | 43 | – | – | 3 | 14
CCSC(=N)Nc1ccc2[nH]cc(C3=CCN(C)CC3)c2c1 [Compound 67, Ethyl 3-(1-methyl-1,2,3,6-tetrahydropyridin-4-yl)-1H-indol-5-ylcarbamimidothioate] | 105 | – | – | 22 | 4.8
N=C(Nc1ccc2[nH]cc(C3CCN(C(=O)c4ccccc4)CC3)c2c1)c1cccs1 [Compound 70, N-(3-(1-benzoylpiperidin-4-yl)-1H-indol-5-yl)thiophene-2-carboximidamide] | 50.9 | – | – | 9.06 | 5.62
N=C(Nc1ccc2[nH]cc(-c3ccncc3)c2c1)c1cccs1 [Compound 73, N-(3-(pyridin-4-yl)-1H-indol-5-yl)thiophene-2-carboximidamide] | 43.4 | – | – | 19.7 | 2.2
CSC(=N)Nc1ccc2[nH]cc(C3=CCN(C)CC3)c2c1 [Compound 75, Methyl 3-(1-methyl-1,2,3,6-tetrahydropyridin-4-yl)-1H-indol-5-ylcarbamimidothioate] | 36.1 | – | – | 16.0 | 2.25
N=C(Nc1ccc2[nH]cc(C3CCN(C(=N)c4cccs4)CC3)c2c1)c1cccs1 [Compound 77, N-(3-(1-(imino(thiophen-2-yl)methyl)piperidin-4-yl)-1H-indol-5-yl)thiophene-2-carboximidamide] | 4.44 | – | – | 6.19 | 0.717
N=C(Nc1ccc2[nH]cc(C3CCNCC3)c2c1)c1cccs1 [Compound 88, N-(3-(piperidin-4-yl)-1H-indol-5-yl)thiophene-2-carboximidamide] | 78.1 | – | – | 8.5 | 9.23
CN1C2C=C(c3c[nH]c4ccc(NC(=N)c5cccs5)cc34)CC1CC2 (stereo not drawn) [Compound 90, N-(3-(8-methyl-8-azabicyclo[3.2.1]oct-3-en-3-yl)-1H-indol-5-yl)thiophene-2-carboximidamide] | 67.9 | – | – | 20.3 | 3.35
CNC1CC=C(c2c[nH]c3ccc(NC(=N)c4cccs4)cc23)CC1 (stereo not drawn) [Compound 100, N-(3-(4-(methylamino)cyclohex-1-enyl)-1H-indol-5-yl)thiophene-2-carboximidamide] | 32 | – | – | 18.5 | 1.73
CN1CCC[C@@H]1Cc1c[nH]c2ccc(NC(=N)c3ccco3)cc12 [Compound 106, (R)-N-(3-((1-Methylpyrrolidin-2-yl)methyl)-1H-indol-5-yl)furan-2-carboximidamide] | 27.1 | – | – | 13.0 | 2.08
CN1CCC[C@H]1Cc1c[nH]c2ccc(NC(=N)c3ccco3)cc12 [Compound 107, (S)-N-(3-((1-methylpyrrolidin-2-yl)methyl)-1H-indol-5-yl)furan-2-carboximidamide] | 24.9 | – | – | 9.9 | 2.52
CN(C)C1CC=C(c2c[nH]c3ccc(NC(=N)c4cccs4)cc23)CC1 (stereo not drawn) [Compound 114, N-(3-(4-(dimethylamino)cyclohex-1-enyl)-1H-indol-5-yl)thiophene-2-carboximidamide] | 51.4 | – | – | 17.1 | 3
